In ChEMBL document CHEMBL1201862, “PubChem BioAssay data set” (2004):
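Exposure lasted 48 hours, with cells grown in 96-well plates and compounds tested at five concentrations. Abbreviation: GI50, concentration required for 50% inhibition of growth.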 Calls of active or inactive are those of the source. No stated cut-off is given here; in the data, active = GI50 up to about 1.1 µM and inactive = higher.

Key:
Assay in all cases: growth of human tumour cells (NCI), 48 h
SF-539 = tested on: SF-539
A549 = tested on: A549
HT-29 = tested on: HT-29
COLO 205 = tested on: COLO 205
HL-60 = tested on: HL-60
SK-MEL-28 = tested on: SK-MEL-28
SNB-78 = tested on: SNB-78
SW-620 = tested on: SW-620
SN12C = tested on: SN12C
SK-OV-3 = tested on: SK-OV-3
LOX IMVI = tested on: LOX IMVI
NCI-H460 = tested on: NCI-H460
UO-31 = tested on: UO-31
NCI-H23 = tested on: NCI-H23
HCT-15 = tested on: HCT-15
SR = tested on: SR
MDA-MB-435 = tested on: MDA-MB-435
Hs-578T = tested on: Hs-578T
PC-3 = tested on: PC-3
T47D = tested on: T47D

Structure (SMILES) | GI50 (SF-539) | GI50 (A549) | GI50 (HT-29) | GI50 (COLO 205) | GI50 (HL-60) | GI50 (SK-MEL-28) | GI50 (SNB-78) | GI50 (SW-620) | GI50 (SN12C) | GI50 (SK-OV-3) | GI50 (LOX IMVI) | GI50 (NCI-H460) | GI50 (UO-31) | GI50 (NCI-H23) | GI50 (HCT-15) [µM] | GI50 (SR) | GI50 (MDA-MB-435) | GI50 (Hs-578T) | GI50 (PC-3) | GI50 (T47D)
COc1ccc(C(=O)C(CO)Oc2ccccc2OC)cc1OC (stereo unspecified) | > 100 µM (inactive) | > 100 µM (inactive) | > 100 µM (inactive) | > 100 µM (inactive) | > 100 µM (inactive) | > 100 µM (inactive) | > 100 µM (inactive) | > 100 µM (inactive) | > 100 µM (inactive) | > 100 µM (inactive) | > 100 µM (inactive) | > 100 µM (inactive) | > 100 µM (inactive) | > 100 µM (inactive) | > 100 |  |  |  |  | 
Cc1ccc(NC(=O)C(=O)C(C(=O)c2ccc3ccccc3c2)C2OC(=O)c3ccccc32)c(C)c1 (stereo unspecified) | 4.84 µM (inactive) | 18 µM (inactive) | 25.7 µM (inactive) | 11.1 µM (inactive) |  | 5.69 µM (inactive) | 8.73 µM (inactive) | 5.71 µM (inactive) | 15.5 µM (inactive) | 12.5 µM (inactive) | 10.6 µM (inactive) | 5.57 µM (inactive) | 13.1 µM (inactive) | 8.13 µM (inactive) | 14.3 |  |  |  |  | 
O=Cc1c(O)c(C(=O)Nc2ccc3[nH]c(=O)[nH]c3c2)cc2ccccc12 | > 100 µM (inactive) | > 100 µM (inactive) | > 100 µM (inactive) | > 100 µM (inactive) | > 100 µM (inactive) | > 100 µM (inactive) | > 100 µM (inactive) | > 100 µM (inactive) | > 100 µM (inactive) | > 100 µM (inactive) | > 100 µM (inactive) | > 100 µM (inactive) | > 100 µM (inactive) | > 100 µM (inactive) | > 100 |  |  |  |  | 
O=C(c1ccc(Cl)cc1)c1ccc(OCCSCCCCCCCCCCSCCOc2ccc(C(=O)c3ccc(Cl)cc3)cc2)cc1 |  | > 100 µM (inactive) | > 100 µM (inactive) | > 100 µM (inactive) | > 100 µM (inactive) | > 100 µM (inactive) | > 100 µM (inactive) | > 100 µM (inactive) | > 100 µM (inactive) | > 100 µM (inactive) | > 100 µM (inactive) | > 100 µM (inactive) | > 100 µM (inactive) | > 100 µM (inactive) | > 100 |  |  |  |  | 
COc1cc(OC(C)=O)cc2c(OC(C)=O)ccc(OC(C)=O)c12 |  | > 100 µM (inactive) | > 100 µM (inactive) |  | 43.6 µM (inactive) | > 100 µM (inactive) | > 100 µM (inactive) | > 100 µM (inactive) | > 100 µM (inactive) |  | > 100 µM (inactive) | > 100 µM (inactive) | > 100 µM (inactive) | > 100 µM (inactive) | > 100 | > 100 µM (inactive) |  |  |  | 
C/C(=C\CBr)CCC(Br)C(C)(C)Cl (stereo unspecified) | > 100 µM (inactive) | > 100 µM (inactive) | > 100 µM (inactive) | > 100 µM (inactive) |  | > 100 µM (inactive) | > 100 µM (inactive) | > 100 µM (inactive) | > 100 µM (inactive) | > 100 µM (inactive) | > 100 µM (inactive) | > 100 µM (inactive) | > 100 µM (inactive) | > 100 µM (inactive) | > 100 | > 100 µM (inactive) |  |  |  | 
CC12Cc3cc4c(cc3C1(c1ccc([N+](=O)[O-])cc1)OCCO2)OCO4 (stereo unspecified) | 28 µM (inactive) | > 100 µM (inactive) | > 100 µM (inactive) | > 100 µM (inactive) | > 100 µM (inactive) | > 100 µM (inactive) |  | > 100 µM (inactive) | 55.6 µM (inactive) | 16.8 µM (inactive) | > 100 µM (inactive) | 70.3 µM (inactive) | > 100 µM (inactive) | 42.9 µM (inactive) | 44.2 | > 100 µM (inactive) | > 100 µM (inactive) | 25.5 µM (inactive) | 97.7 µM (inactive) | > 100 µM (inactive)
CCOC(=O)c1cccc(=O)c(C(=O)OCC)c1 | 26.1 µM (inactive) | 46.9 µM (inactive) | 58.2 µM (inactive) |  | 26.6 µM (inactive) | 38.6 µM (inactive) | 57.3 µM (inactive) | 50.2 µM (inactive) |  | > 100 µM (inactive) |  | 80 µM (inactive) | 29.4 µM (inactive) | 44 µM (inactive) | 40.3 |  |  |  |  | 
CC(=O)C(=[N+]=[N-])C(=O)OC(C)(C)C#N | > 10 µM (inactive) | > 10 µM (inactive) | > 10 µM (inactive) | > 10 µM (inactive) | > 10 µM (inactive) | > 10 µM (inactive) |  | > 10 µM (inactive) | > 10 µM (inactive) | > 10 µM (inactive) | > 10 µM (inactive) | > 10 µM (inactive) | > 10 µM (inactive) | > 10 µM (inactive) | > 10 | > 10 µM (inactive) | > 10 µM (inactive) | > 10 µM (inactive) | > 10 µM (inactive) | > 10 µM (inactive)
CCCCc1c2c(nc3c1CC/C(=C\c1ccc([N+](=O)[O-])cc1)C3=O)CCCC2 | 1.79 µM (inactive) | 4.41 µM (inactive) | 1.33 µM (inactive) | 2.81 µM (inactive) |  | 1.69 µM (inactive) | 1.96 µM (inactive) | 1.69 µM (inactive) | 1.88 µM (inactive) | 2.15 µM (inactive) | 1.6 µM (inactive) | 1.57 µM (inactive) | 2.13 µM (inactive) |  | 0.312 | 2.86 µM (inactive) |  |  |  | 
C(=N\c1ccc(-c2nc3ccccc3s2)cc1)/c1ccc[nH]1 | 17.6 µM (inactive) | 25.6 µM (inactive) | 19.8 µM (inactive) | 16.3 µM (inactive) | 16.5 µM (inactive) | 20.1 µM (inactive) |  | 22.4 µM (inactive) | 19.5 µM (inactive) | 17.7 µM (inactive) | 17.3 µM (inactive) | 17.1 µM (inactive) | 17.4 µM (inactive) | 16.8 µM (inactive) | 13.6 | 21.4 µM (inactive) | 19.2 µM (inactive) | 19.7 µM (inactive) | 14.9 µM (inactive) | 13.4 µM (inactive)
COc1cc(Oc2c(O)c(C)c(OC)c(C(C)=O)c2O)c(C(C)=O)c(O)c1C | 62.2 µM (inactive) | 45.8 µM (inactive) | 71.8 µM (inactive) | 60.1 µM (inactive) |  | 50.6 µM (inactive) | > 100 µM (inactive) | 57.3 µM (inactive) | 34.9 µM (inactive) | > 100 µM (inactive) | 57.3 µM (inactive) | 46.9 µM (inactive) | 43.1 µM (inactive) | 34.4 µM (inactive) | 47.6 | > 100 µM (inactive) |  |  |  | 
COc1cc(C(=O)C/C(CCC(=O)Nc2ccc(Cl)cc2C)=N/NC(=O)C(N)=O)ccc1O | > 100 µM (inactive) | > 100 µM (inactive) | > 100 µM (inactive) | > 100 µM (inactive) | > 100 µM (inactive) |  | > 100 µM (inactive) | > 100 µM (inactive) | > 100 µM (inactive) | 65.3 µM (inactive) | > 100 µM (inactive) | > 100 µM (inactive) | 43.1 µM (inactive) | > 100 µM (inactive) | > 100 |  |  |  |  | 
CCOc1ccc2c(c1)[n+]([O-])c(-c1ccc([N+](=O)[O-])cc1)c(N)[n+]2[O-] | > 100 µM (inactive) | > 100 µM (inactive) | > 100 µM (inactive) | > 100 µM (inactive) | 96.8 µM (inactive) | > 100 µM (inactive) | > 100 µM (inactive) | > 100 µM (inactive) | > 100 µM (inactive) | > 100 µM (inactive) |  | > 100 µM (inactive) | 43.1 µM (inactive) | > 100 µM (inactive) |  | 67 µM (inactive) |  |  |  | 
CC(C)(C)OC(=O)NC1CCC[C@H]1O (stereo partly specified) | > 100 µM (inactive) | > 100 µM (inactive) | > 100 µM (inactive) |  |  | > 100 µM (inactive) | > 100 µM (inactive) | > 100 µM (inactive) | > 100 µM (inactive) | > 100 µM (inactive) | > 100 µM (inactive) | > 100 µM (inactive) | > 100 µM (inactive) | > 100 µM (inactive) |  | > 100 µM (inactive) |  |  |  | 
COC(=O)CC1CCN(C#N)CC1CC[N+](=O)[O-] (stereo unspecified) | > 100 µM (inactive) | > 100 µM (inactive) |  | > 100 µM (inactive) | > 100 µM (inactive) | > 100 µM (inactive) | > 100 µM (inactive) | > 100 µM (inactive) | > 100 µM (inactive) | > 100 µM (inactive) |  | > 100 µM (inactive) | > 100 µM (inactive) |  | > 100 | > 100 µM (inactive) |  |  |  | 
CC1(C(=O)O)C[C@](C)(C(=O)OCc2ccccc2)C[C@](C)(C(=O)OCc2ccccc2)C1 (stereo partly specified) | 25.8 µM (inactive) | 35.6 µM (inactive) | 31.8 µM (inactive) | 18.5 µM (inactive) | 22.4 µM (inactive) | 50.2 µM (inactive) |  | 47 µM (inactive) | 30.2 µM (inactive) | 32.6 µM (inactive) | 30.8 µM (inactive) | 23.9 µM (inactive) | 21.9 µM (inactive) | 25.1 µM (inactive) | 25.5 | 29.1 µM (inactive) | 40.5 µM (inactive) | 30.3 µM (inactive) | 26.2 µM (inactive) | 35.2 µM (inactive)
COc1ccc(-c2oc3c(OC)c(OC)c(OC)c(OC)c3c(=O)c2OC)cc1OC [3,5,6,7,8,3',4'-HEPTAMETHOXYFLAVONE] | 65.8 µM (inactive) | 70.6 µM (inactive) | 26.5 µM (inactive) | 65.6 µM (inactive) | 14.1 µM (inactive) | 66.7 µM (inactive) |  | 32.8 µM (inactive) | 93.3 µM (inactive) | > 100 µM (inactive) | 27 µM (inactive) | 19.8 µM (inactive) | 23.6 µM (inactive) | 72.6 µM (inactive) | 35.9 | 19.1 µM (inactive) | 15.8 µM (inactive) | 20.9 µM (inactive) | 26.6 µM (inactive) | 22.4 µM (inactive)
